From PubChem BioAssay AID1259407 (Chemical Carcinogenesis Research Information System (CCRIS), 2018) come the findings set out here.

This data set relates to CCRIS mutagenicity, Ames/micronucleus/aberration tests. Nature of the data set: CCRIS mutagenicity studies.
Where [1] appears, read: Test System: AMES SALMONELLA TYPHIMURIUM, Strain/Indicator: TA98, Metabolic Activation: NONE, Method: PREINCUBATION
Where [2] appears, read: Test System: AMES SALMONELLA TYPHIMURIUM, Strain/Indicator: TA100, Metabolic Activation: NONE, Method: PREINCUBATION
Where [3] appears, read: Test System: AMES SALMONELLA TYPHIMURIUM, Strain/Indicator: TA1535, Metabolic Activation: NONE, Method: PREINCUBATION
Where [4] appears, read: Test System: AMES SALMONELLA TYPHIMURIUM, Strain/Indicator: TA98, Metabolic Activation: NONE, Method: STANDARD PLATE.
[5] abbreviates: Test System: AMES SALMONELLA TYPHIMURIUM, Strain/Indicator: TA98, Metabolic Activation: RAT, LIVER, S-9, AROCLOR 1254, Method: STANDARD PLATE.
The mark [6] stands for this setting: Test System: AMES SALMONELLA TYPHIMURIUM, Strain/Indicator: TA100, Metabolic Activation: NONE, Method: STANDARD PLATE.
Setting [7] is: Test System: AMES SALMONELLA TYPHIMURIUM, Strain/Indicator: TA100, Metabolic Activation: RAT, LIVER, S-9, AROCLOR 1254, Method: STANDARD PLATE.

The structures appear in SMILES notation. Calls of active or inactive are those of the source. How the calls were made is not given here.

`CCCCC(CC)COC(=O)c1cccc(C(=O)OCC(CC)CCCC)c1` (stereo not given): the mutagenic call by setting is: (Test System: AMES SALMONELLA TYPHIMURIUM, Strain/Indicator: TA97, Metabolic Activation: HAMSTER, LIVER, S-9, AROCLOR 1254 (10 OR 30%), Method: PREINCUBATION) “inactive; negative”; (Test System: AMES SALMONELLA TYPHIMURIUM, Strain/Indicator: TA97, Metabolic Activation: NONE, Method: PREINCUBATION) “inactive; negative”; (Test System: AMES SALMONELLA TYPHIMURIUM, Strain/Indicator: TA97, Metabolic Activation: RAT, LIVER, S-9, AROCLOR 1254 (10 OR 30%), Method: PREINCUBATION) “inactive; negative”; (Test System: AMES SALMONELLA TYPHIMURIUM, Strain/Indicator: TA98, Metabolic Activation: HAMSTER, LIVER, S-9, AROCLOR 1254 (10 OR 30%), Method: PREINCUBATION) “inactive; negative”; under setting [1], “inactive; negative”; (Test System: AMES SALMONELLA TYPHIMURIUM, Strain/Indicator: TA98, Metabolic Activation: RAT, LIVER, S-9, AROCLOR 1254 (10 OR 30%), Method: PREINCUBATION) “inactive; negative”. Besides, the mutagenic call is, setting by setting: (Test System: AMES SALMONELLA TYPHIMURIUM, Strain/Indicator: TA100, Metabolic Activation: HAMSTER, LIVER, S-9, AROCLOR 1254 (10 OR 30%), Method: PREINCUBATION) “inactive; negative”; under setting [2], “inactive; negative”; (Test System: AMES SALMONELLA TYPHIMURIUM, Strain/Indicator: TA100, Metabolic Activation: RAT, LIVER, S-9, AROCLOR 1254 (10 OR 30%), Method: PREINCUBATION) “inactive; negative”; (Test System: AMES SALMONELLA TYPHIMURIUM, Strain/Indicator: TA1535, Metabolic Activation: HAMSTER, LIVER, S-9, AROCLOR 1254 (10 OR 30%), Method: PREINCUBATION) “inactive; negative”; under setting [3], “inactive; negative”; (Test System: AMES SALMONELLA TYPHIMURIUM, Strain/Indicator: TA1535, Metabolic Activation: RAT, LIVER, S-9, AROCLOR 1254 (10 OR 30%), Method: PREINCUBATION) “inactive; negative”.

For the molecule `Cc1cc([N+](=O)[O-])cc2ccccc12`, under setting [1], the mutagenic call is “active; positive”.

For `COc1cc(NC(C)=O)ccc1NC(C)=O`, the mutagenic call under setting [4] is “inactive; negative” and the mutagenic call under setting [5] was “inactive; negative”.

`Cc1cc(C(=O)NNCc2ccccc2)no1`: the mutagenic call was “inactive; negative” under setting [4]; “inactive; negative” under setting [5]; “inactive; negative” under setting [6]; “inactive; negative” under setting [7]; “inactive; negative” (Test System: AMES SALMONELLA TYPHIMURIUM, Strain/Indicator: TA1535, Metabolic Activation: NONE, Method: STANDARD PLATE); “inactive; negative” (Test System: AMES SALMONELLA TYPHIMURIUM, Strain/Indicator: TA1535, Metabolic Activation: RAT, LIVER, S-9, AROCLOR 1254, Method: STANDARD PLATE). Further, the mutagenic call is “inactive; negative” (Test System: AMES SALMONELLA TYPHIMURIUM, Strain/Indicator: TA1537, Metabolic Activation: NONE, Method: STANDARD PLATE) and “inactive; negative” (Test System: AMES SALMONELLA TYPHIMURIUM, Strain/Indicator: TA1537, Metabolic Activation: RAT, LIVER, S-9, AROCLOR 1254, Method: STANDARD PLATE).

For the molecule `COc1ccc(N=O)cc1`, the mutagenic call is “active; positive” under setting [4], “active; positive” under setting [5], “active; positive” under setting [6] and “active; positive” under setting [7].

In the case of `O=C(O)CCCCCCCCC(=O)O`, the mutagenic call is, setting by setting: under setting [1], “inactive; negative”; (Test System: AMES SALMONELLA TYPHIMURIUM, Strain/Indicator: TA98, Metabolic Activation: RAT LIVER S-9, PHENOBARBITAL AND BETA-NAPHTHOFLAVONE, Method: PREINCUBATION) “inactive; negative”; (Test System: AMES SALMONELLA TYPHIMURIUM, Strain/Indicator: TA98, Metabolic Activation: RAT, LIVER, S-9, KC 500, Method: PREINCUBATION) “inactive; negative”; under setting [2], “inactive; negative”; (Test System: AMES SALMONELLA TYPHIMURIUM, Strain/Indicator: TA100, Metabolic Activation: RAT LIVER S-9, PHENOBARBITAL AND BETA-NAPHTHOFLAVONE, Method: PREINCUBATION) “inactive; negative”; (Test System: AMES SALMONELLA TYPHIMURIUM, Strain/Indicator: TA100, Metabolic Activation: RAT, LIVER, S-9, KC 500, Method: PREINCUBATION) “inactive; negative”. For the same molecule, the mutagenic call is “inactive; negative” under setting [3]; “inactive; negative” (Test System: AMES SALMONELLA TYPHIMURIUM, Strain/Indicator: TA1535, Metabolic Activation: RAT LIVER S-9, PHENOBARBITAL AND BETA-NAPHTHOFLAVONE, Method: PREINCUBATION); “inactive; negative” (Test System: AMES SALMONELLA TYPHIMURIUM, Strain/Indicator: TA1535, Metabolic Activation: RAT, LIVER, S-9, KC 500, Method: PREINCUBATION); “inactive; negative” (Test System: AMES SALMONELLA TYPHIMURIUM, Strain/Indicator: TA1537, Metabolic Activation: NONE, Method: PREINCUBATION); “inactive; negative” (Test System: AMES SALMONELLA TYPHIMURIUM, Strain/Indicator: TA1537, Metabolic Activation: RAT LIVER S-9, PHENOBARBITAL AND BETA-NAPHTHOFLAVONE, Method: PREINCUBATION); “inactive; negative” (Test System: AMES SALMONELLA TYPHIMURIUM, Strain/Indicator: TA1537, Metabolic Activation: RAT, LIVER, S-9, KC 500, Method: PREINCUBATION). The mutagenic call was “inactive; negative” (Test System: AMES SALMONELLA TYPHIMURIUM, Strain/Indicator: TA1538, Metabolic Activation: NONE, Method: PREINCUBATION); “inactive; negative” (Test System: AMES SALMONELLA TYPHIMURIUM, Strain/Indicator: TA1538, Metabolic Activation: RAT, LIVER, S-9, KC 500, Method: PREINCUBATION); “inactive; negative” (Test System: E. COLI, Strain/Indicator: WP2UVRA/PKM101, Metabolic Activation: NONE, Method: PREINCUBATION); “inactive; negative” (Test System: E. COLI, Strain/Indicator: WP2UVRA/PKM101, Metabolic Activation: RAT LIVER S-9, PHENOBARBITAL AND BETA-NAPHTHOFLAVONE, Method: PREINCUBATION); “inactive; negative” (Test System: E. COLI, Strain/Indicator: WP2 UVRA, Metabolic Activation: NONE, Method: PREINCUBATION); “inactive; negative” (Test System: E. COLI, Strain/Indicator: WP2 UVRA, Metabolic Activation: RAT, LIVER, S-9, KC 500, Method: PREINCUBATION).

With `O=CCO`, under setting [2], the mutagenic call is “inactive; negative”.

As for `c1ccc2c(c1)ccc1c3cccnc3ccc21`, the mutagenic call was “active; positive” under setting [5] and “active; positive” under setting [7].

Regarding `Cc1ccccc1N=Nc1ccc(N)c(C)c1N`, the mutagenic call is “active; positive” (Test System: AMES SALMONELLA TYPHIMURIUM, Strain/Indicator: TA100, Metabolic Activation: HUMAN, LIVER, S-9, Method: PREINCUBATION); “active; positive” (Test System: AMES SALMONELLA TYPHIMURIUM, Strain/Indicator: TA100, Metabolic Activation: RAT, LIVER, S-9, BETA-NAPHTHOFLAVONE, Method: PREINCUBATION); “active; positive” (Test System: AMES SALMONELLA TYPHIMURIUM, Strain/Indicator: TA100, Metabolic Activation: RAT, LIVER, S-9, PHENOBARBITAL, Method: PREINCUBATION); “active; positive” (Test System: AMES SALMONELLA TYPHIMURIUM, Strain/Indicator: TA100, Metabolic Activation: RAT, LIVER, S-9, Method: PREINCUBATION); “active; positive” (Test System: UDS RODENT HEPATOCYTES, Strain/Indicator: THY INCORP, Metabolic Activation: NONE, Method: AUTORADIOGRAPHY).

On to `Cc1cc(-c2cc3c(cc2F)n2c(=O)n(O)c(=O)cc2n3C2CC2)cc(C)n1`, for which, where the note is “Test System: AMES SALMONELLA TYPHIMURIUM, Strain/Indicator: TA102, Metabolic Activation: NONE, Method: STANDARD PLATE”, the mutagenic call was “active; positive”.

For the molecule `O=C1C=C(c2nnc(NC(=O)c3ccccc3)s2)C(=O)C=C1Nc1ccc([N+](=O)[O-])cc1`, the mutagenic call under setting [6] was “active; positive”.
